Assay results from the Deep4Chem optical property database.
Values belong to the molecule of their own block, whether it stands above or below them.

Assay: photoluminescence quantum yield (fraction); solvent given as SMILES

photoluminescence quantum yield (in ClCCl): 0.3
SMILES: c1ccc(N(c2ccccc2)c2ccc(-c3nc(-c4ccc(N(c5ccccc5)c5ccccc5)cc4)c4ccccc4n3)cc2)cc1

photoluminescence quantum yield (in O): 0.2
SMILES: COc1ccc2cc3cccc[n+]3cc2c1

photoluminescence quantum yield (in C1CCOC1): 0.07
photoluminescence quantum yield (in ClCCl): 0.07
SMILES: CCC(CC)COC1=CC2=C3c4cc(OCC(CC)CC)c(-c5cccs5)n4[B-](F)(F)[n+]4c3n(c3cc(C(C)(C)C)ccc34)[B-](F)(F)[N+]2=C1c1cccs1

SMILES: N#Cc1c(N2c3ccccc3C(c3ccccc3)(c3ccccc3)c3ccccc32)cccc1N1c2ccccc2C(c2ccccc2)(c2ccccc2)c2ccccc21
photoluminescence quantum yield (in Cc1ccccc1): 0.67

photoluminescence quantum yield (in ClC(Cl)Cl): 0.055
SMILES: FC(F)(F)c1ccc2oc3nc4oc5ccc(N6c7ccccc7Oc7ccccc76)cc5c4cc3c2c1

photoluminescence quantum yield (in ClCCl): 0.67
SMILES: C(=C\c1cnc2ccccc2n1)/c1ccc(N(c2ccccc2)c2ccccc2)cc1

photoluminescence quantum yield (in C1CCOC1): 0.55
photoluminescence quantum yield (in C1COCCO1): 0.46
photoluminescence quantum yield (in CC#N): 0.53
photoluminescence quantum yield (in CCO): 0.54
photoluminescence quantum yield (in ClCCl): 0.55
SMILES: C(=C\c1ccc(N(c2ccccc2)c2ccccc2)cc1)/c1ccc(-c2cc(-c3ccccn3)nc(-c3ccccn3)c2)cc1

SMILES: c1ccc2c(c1)c1ccccc1n2-c1ccc(-c2ccc(-n3c4ccccc4c4ccccc43)nc2-n2c3ccccc3c3ccccc32)nn1
photoluminescence quantum yield (in Cc1ccccc1): 0.35

photoluminescence quantum yield (in ClCCl): 0.49
SMILES: COc1ccc(C2=[N+]3C(=Cc4c5ccc(OC)cc5c(-c5ccc(OC)cc5)n4[B-]3(F)F)c3ccc(OC)cc32)cc1

SMILES: CN(C)c1ccc(C#Cc2cc3ccc4cc(C#Cc5ccc(N(C)C)cc5)cc5ccc(c2)c3c45)cc1
photoluminescence quantum yield (in Cc1ccccc1): 0.39

photoluminescence quantum yield (in ClCCl): 0.72
SMILES: Cc1nc(-c2cc(F)ccc2O)n2c1CCCC2

photoluminescence quantum yield (in ClCCl): 0.39
SMILES: COc1ccc(/C=C/C2=[O+][B-](F)(F)OC(/C=C/c3ccc(OC)cc3)=C2c2ccc(OC)cc2)cc1

photoluminescence quantum yield (in C1CCOC1): 0.3
photoluminescence quantum yield (in ClCCl): 0.85
SMILES: O=P1(c2ccccc2)C(c2ccccc2)=Cc2ccccc21 (stereo unspecified)

photoluminescence quantum yield (in C1CCOC1): 0.07
SMILES: CSC1=C(C)C2=C(c3ccc(C)cc3)c3c(C)c(Cl)c(C)n3[B-](F)(F)[N+]2=C1C

photoluminescence quantum yield (in CCO): 0.49
photoluminescence quantum yield (in O): 0.13
SMILES: O=C(O)COc1cccc(OCC(=O)O)c1-c1c2ccc(=[N+]3CCCCC3)cc-2oc2cc(N3CCCCC3)ccc12

photoluminescence quantum yield (in CO): 0.37
photoluminescence quantum yield (in ClC(Cl)Cl): 0.59
photoluminescence quantum yield (in O): 0.03
SMILES: CC(=O)OCCOCCN1C(=O)c2cc(NCCOCCO)c3c4c(cc(NCCOCCO)c(c24)C1=O)C(=O)N(CCOCCOC(C)=O)C3=O

photoluminescence quantum yield (in ClCCl): 0.00154
SMILES: CCOC(=O)C1=C(C(=O)OCC)C2(c3ccccc3-c3ccccc32)[C@@H](c2ccccc2)C=C2c3cc(OC)c(OC)cc3CCN21

SMILES: c1ccc(N(c2ccccc2)c2ccc3c(ccc4nc5ccc6cc(N(c7ccccc7)c7ccccc7)ccc6c5nc43)c2)cc1
photoluminescence quantum yield (in C1CCCCC1): 0.56
photoluminescence quantum yield (in C1CCOC1): 0.59
photoluminescence quantum yield (in CN(C)C=O): 0.34
photoluminescence quantum yield (in Cc1ccccc1): 0.44
photoluminescence quantum yield (in ClCCl): 0.64

photoluminescence quantum yield (in CCO): 0.641
SMILES: Cc1c(C)n2c(COC(=O)c3ccccc3O)c(C)c(=O)n2c1=O

photoluminescence quantum yield (in ClCCl): 0.03
SMILES: CC(C)(C)NC(=O)c1ccc(-c2ccc(N3c4ccccc4Oc4ccccc43)cc2)c2ccc3c4ccc(F)cc4c4cc(F)ccc4c3c12

photoluminescence quantum yield (in C1CCOC1): 0.23
SMILES: O=P1(c2ccccc2)C(c2cccs2)=Cc2ccccc21 (stereo unspecified)

SMILES: CCn1c2ccccc2c2cc(-c3cc(-c4ccc5c(c4)c4ccccc4n5CC)nc(SC)n3)ccc21
photoluminescence quantum yield (in C1CCOC1): 0.23
photoluminescence quantum yield (in CCOC(C)=O): 0.39
photoluminescence quantum yield (in CN(C)C=O): 0.46
photoluminescence quantum yield (in Cc1ccccc1): 0.35
photoluminescence quantum yield (in ClCCl): 0.31

photoluminescence quantum yield (in O): 0.0006
SMILES: C/C=C/C1=NC(=C\c2ccc([O-])cc2)/C(=O)N1C

photoluminescence quantum yield (in C1CCOC1): 0.017
SMILES: C(=C(c1ccccc1)c1ccccc1)c1ccc(C=C(c2ccccc2)c2ccccc2)cc1

photoluminescence quantum yield (in C1CCOC1): 0.29
SMILES: O=P1(c2ccccc2)C(c2ccc(C3=Cc4ccccc4P3(=O)c3ccccc3)cc2)=Cc2ccccc21 (stereo unspecified)

photoluminescence quantum yield (in ClC(Cl)Cl): 0.96
SMILES: Cc1ccc(C#Cc2ccc(C#Cc3ccc(C#Cc4ccccc4C#N)cc3C#N)cc2C#N)cc1

SMILES: Cc1ccc(-n2c3ccc(-c4ccc(-c5nc6ccccc6n5-c5ccccc5)cc4)cc3c3cc(-c4ccc(-c5nc6ccccc6n5-c5ccccc5)cc4)ccc32)cc1
photoluminescence quantum yield (in Cc1ccccc1): 0.65

SMILES: COc1cc2c3c(c4cc(OC)c(OC)c(OC)c4c2c(OC)c1OC)=[N+]1C(=C(c2c(C)cc(C)cc2C)c2cc4c5cc(OC)c(OC)c(OC)c5c5c(OC)c(OC)c(OC)cc5c4n2[B-]1(F)F)C=3
photoluminescence quantum yield (in C1CCCCC1): 0.1
photoluminescence quantum yield (in C1CCOC1): 0.001
photoluminescence quantum yield (in CC#N): 0.001
photoluminescence quantum yield (in Cc1ccccc1): 0.001
photoluminescence quantum yield (in ClCCl): 0.001

SMILES: CN(C)c1ccc(/C=C2\OC(=O)c3cc(N)ccc32)cc1
photoluminescence quantum yield (in CC#N): 0.24
photoluminescence quantum yield (in CC(C)=O): 0.26
photoluminescence quantum yield (in CC(C)CO): 0.36
photoluminescence quantum yield (in CC(C)O): 0.31
photoluminescence quantum yield (in CCCO): 0.28
photoluminescence quantum yield (in CCO): 0.22
photoluminescence quantum yield (in CCOC(C)=O): 0.37
photoluminescence quantum yield (in CCOCC): 0.4
photoluminescence quantum yield (in CO): 0.22

SMILES: Cc1cc(C)c2c(c1)c1cc(C)cc(C)c1n2-c1ccc2c(c1)Sc1cc3c(cc1B2c1c(C(C)C)cc(C(C)C)cc1C(C)C)B(c1c(C(C)C)cc(C(C)C)cc1C(C)C)c1ccccc1S3
photoluminescence quantum yield (in Cc1ccccc1): 0.17
photoluminescence quantum yield (in O=P(c1ccccc1)(c1ccccc1)c1ccc2oc3ccc(P(=O)(c4ccccc4)c4ccccc4)cc3c2c1): 0.93

photoluminescence quantum yield (in ClCCl): 0.64
SMILES: COCCOCCOCCOCC(COCCOCCOCCOC)Oc1cc(/C=C/c2ccc(/C=C(\C#N)c3ccccn3)cc2)c(OC(COCCOCCOCCOC)COCCOCCOCCOC)cc1/C=C/c1ccc(/C=C(\C#N)c2ccccn2)cc1

SMILES: Cc1cc2c(o1)=CC1=Cc3cc4oc(C)cc4n3[B-](F)(F)[N+]=21
photoluminescence quantum yield (in C1CCOC1): 0.93
photoluminescence quantum yield (in CC#N): 0.95
photoluminescence quantum yield (in CCO): 0.97
photoluminescence quantum yield (in CO): 0.96
photoluminescence quantum yield (in Cc1ccccc1): 0.94
photoluminescence quantum yield (in ClC(Cl)Cl): 0.96

photoluminescence quantum yield (in CO): 0.27
SMILES: COc1ccc(-c2nc(-c3ccccc3OC)[nH]c2-c2ccc(OC)cc2)cc1

photoluminescence quantum yield (in C1CCOC1): 0.27
SMILES: CCN(CC)c1ccc(-c2nc3c4ccccc4n(C)c3nc2-c2ccc(B(c3c(C)cc(C)cc3C)c3c(C)cc(C)cc3C)cc2)cc1

photoluminescence quantum yield (in CS(C)=O): 0.302
SMILES: CCN1\C(=C/C=C/C=C/C2=[N+](CC)c3ccc4ccccc4c3C2(C)C)C(C)(C)c2c1ccc1ccccc21

photoluminescence quantum yield (in c1cc(-c2cccc(-n3c4ccccc4c4ccccc43)c2)cc(-n2c3ccccc3c3ccccc32)c1): 0.98
SMILES: Cc1cc(-c2nc(-c3ccccc3)nc(-c3ccccc3)n2)c(C)cc1-c1ccc2c(c1)C1(c3ccccc3-c3ccccc31)c1ccccc1N2c1ccccc1

SMILES: CN(C)c1ccc(C2=Cc3cccc[n+]3[B-](F)(F)O2)cc1
photoluminescence quantum yield (in C1CCOC1): 0.684
photoluminescence quantum yield (in C1COCCO1): 0.794
photoluminescence quantum yield (in CC1CCCCC1): 0.519
photoluminescence quantum yield (in CC#N): 0.517
photoluminescence quantum yield (in CCOC(C)=O): 0.699
photoluminescence quantum yield (in CCOCC): 0.868
photoluminescence quantum yield (in CN(C)C=O): 0.382
photoluminescence quantum yield (in CO): 0.454
photoluminescence quantum yield (in COC(C)=O): 0.569
photoluminescence quantum yield (in ClC(Cl)Cl): 0.705

photoluminescence quantum yield (in CO): 0.28
SMILES: Cc1ccc(-c2nc(-c3ccccc3O)[nH]c2-c2ccc(C)cc2)cc1

photoluminescence quantum yield (in ClC(Cl)Cl): 0.13
SMILES: COc1ccc(-c2nc(-c3ccc(C)cc3)c3ccccn23)cc1

photoluminescence quantum yield (in CO): 0.014
SMILES: N#Cc1c(-n2nnc3c2CCC2C(CC3)[C@@H]2CO)n([C@H]2C[C@H](O)[C@@H](CO)O2)c2ncnc(N)c12 (stereo partly specified)

photoluminescence quantum yield (in CN(C)C=O): 0.5
SMILES: O=c1[nH]nc(-c2ccc(/C=C/c3ccc(-c4n[nH]c(=O)o4)cc3)cc2)o1

photoluminescence quantum yield (in ClCCl): 0.0575
SMILES: COc1cc(OC)cc(-c2ccc(C3=CC(c4ccccc4)=C(c4ccccc4)C3)cc2)c1
